Test results taken from paper PMC8951016, “Computational Design and Biological Evaluation of Analogs of Lupin Peptide P5 Endowed with Dual PCSK9/HMG-CoAR Inhibiting Activity” (Pharmaceutics, 2022).

Experiments:
LDL uptake, HepG2 cells [1] = assay: Fluorescent LDL uptake in HepG2 cells in the presence of PCSK9; assay type: cell-based, human; details: 50 µM + PCSK9 4 µg/mL; Figure 3C
Experimental: (§1) HepG2 cells (3 × 10^4/well) were seeded in 96-well plates and kept in complete growth medium for 2 days before treatment. The third day, cells were washed with PBS and then starved overnight (O/N) in DMEM without FBS and antibiotics. After starvation, they were treated with 4.0 μg/mL PCSK9 and 4.0 μg/mL PCSK9 + P5 and P5 analogs peptides (50 µM), and vehicle (H2O) for 2 h with at 37 °C under 5% CO2 atmosphere. Fluorescent LDL-uptake was finally assessed following optimized protocol. See Supplementary Materials for further details.
(§2) PBS for 1.5 h at RT. LDLR primary antibody solution (1:3000 in 5% BSA in PBS, 25 µL/well) was incubated O/N at +4 °C. […] The reaction was stopped with 2 M H2SO4 and then the absorbance at 450 nm was measured using the microplate reader Synergy H1 (Winoo-ski, VT, USA). After the read, cells were stained by adding 1 X Janus Green stain, incubat-ing for 5 min at RT. […]
(§3) Afterward 100 µL 0.5 M HCl for well were added and incubated for 10 min. After 10 sec-onds shaking, the OD at 595 nm was measured using the microplate reader Synergy H1 […]
(§4) Fluorescent LDL Uptake. […] The degree of LDL uptake was measured using the Synergy H1 fluo-rescent plate reader (Winooski, VT, USA) (excitation and emission wavelengths 540 and 570 nm, respectively). Fluorescent LDL-uptake was finally assessed following optimized […]

SREBP-2 = assay: Western blot, SREBP-2 protein level in HepG2; assay type: cell-based, human; details: 50 µM, 24 h
Experimental: (§5) A total of 1.5 × 10^5 HepG2 cells/well (24-well plate) were treated with 50 μM of P5 and P5 analogs for 24 h. Immunoblotting experiments were performed using optimized protocol. See Supplementary Materials for further details.
as §2, with “°C. Subsequently, the primary antibody solution was discarded and each sample was washed 5 times with 100 µL/well of PBS (each wash was for 5 min at RT). Goat anti-rabbit Ig-HRP secondary antibody solution (Santa Cruz) (1:6000 in 5% BSA in PBS, 50 µL/well), was added and incubated 1 h at RT.” for “°C.”
as §3, §4

LDLR = assay: Western blot, LDLR protein level in HepG2; assay type: cell-based, human; details: 50 µM, 24 h
Experimental: as §5
as §2, with “°C. Subsequently, the primary antibody solution was discarded and each sample was washed 5 times with 100 µL/well of PBS (each wash was for 5 min at RT). Goat anti-rabbit Ig-HRP secondary antibody solution (Santa Cruz) (1:6000 in 5% BSA in PBS, 50 µL/well), was added and incubated 1 h at RT.” for “°C.”
as §3, §4

LDL uptake, HepG2 cells [2] = assay: Fluorescent LDL uptake in HepG2 cells (peptide alone); assay type: cell-based, human; details: 50 µM, vs control, average ± SD, four independent experiments in duplicate
Experimental: as §1, §2, §3, §4

[3] = biological target: T1, HMG-CoAR (catalytic domain) (Homo sapiens, UniProt P04035); details: parent peptide; read-out: IC50, HMG-CoAR activity (P5); cited from earlier work
T1 construct: finally the HMG-CoAR (cata- lytic domain) (2 µL); purchased Sigma-Aldrich
T1 sequence (P04035 426-888 limits assumed): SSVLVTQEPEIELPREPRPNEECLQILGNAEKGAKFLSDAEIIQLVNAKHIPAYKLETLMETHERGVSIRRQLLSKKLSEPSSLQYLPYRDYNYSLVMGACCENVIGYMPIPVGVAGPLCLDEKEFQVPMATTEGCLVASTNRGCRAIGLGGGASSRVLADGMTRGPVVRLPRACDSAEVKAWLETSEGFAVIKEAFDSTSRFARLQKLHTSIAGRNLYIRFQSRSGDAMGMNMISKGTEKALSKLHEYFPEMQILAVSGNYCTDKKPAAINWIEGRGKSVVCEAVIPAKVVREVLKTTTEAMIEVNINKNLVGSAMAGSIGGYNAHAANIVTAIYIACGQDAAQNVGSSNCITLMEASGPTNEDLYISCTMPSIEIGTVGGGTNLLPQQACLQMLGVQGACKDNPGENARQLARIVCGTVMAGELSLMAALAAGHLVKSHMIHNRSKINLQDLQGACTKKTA

Sequence: LILPKHSDAD [Peptide P5, natural peptide derived from a peptic lupin protein hydrolysate]
- ability to absorb LDL in presence of PCSK9 (LDL uptake, HepG2 cells [1]): improved
- SREBP-2 protein level (words, P5) (SREBP-2): upregulation of the SREBP-2 transcription factor level
- LDLR protein level (words, P5) (LDLR): augmentation of the LDLR protein levels
- ability of HepG2 cells to uptake extracellular LDL (LDL uptake, HepG2 cells [2]): 203.8 ± 40.67%
- IC50 [3]: 147 µM
